Entries after “also recorded” stand apart in the source; their conditions may differ.
How the values were obtained:
[1] = system: aPLA (patient-derived anti-β2GP1 antibodies); assay: ELISA epitope mapping assay (aPLA binding to coated wells); parameters: species or system human; settings: wells coated with 10 μg/ml, aPLA from APS patients
Procedure: IgG fractions were isolated from patients plasma with Protein-G CL-4B Sepharose (GE Healthcare) as previously described.^16 To assay for endotoxin and lipopeptide contamination of the IgG fractions, we depleted IgG from the aPLA and IgG-ctl (control) fractions by one step of affinity adsorption to Protein G-Sepharose and tested the remaining supernatant for its capacity for monocyte activation, as previously described^17. […] Each experiment was performed with at least 2 different preparations of IgG.
MaxiSorp™ 96 well plates (Nunc) were coated with 10 μg/ml recombinant domains or peptides of β2GP1 prior to incubation with aPLA or control IgG. Secondary anti-human antibodies conjugated to IR800CW (Rockland) were used. Protein- or peptide-bound antibodies were detected and quantified by the Odyssey system (Li-Cor).

[2] = system: human monocytes activated with aPLA; assay: TNF production in human monocytes activated with aPLA; assay type: cell-based; settings: domains or peptides at 10 μg/ml
Procedure: Monocytes were isolated from blood buffy coats of healthy volunteers as previously described.^14, 15 Monocyte purity routinely consisted of >90% CD14^+ cells, <1% CD3^+ cells, and <1% CD19^+ cells as assessed by flow cytometry. Cells were cultured in RPMI containing 10% Fetal Bovine Serum (FBS; Gibco BRL-Life Technologies). Each experiment was performed with at least three different preparations of monocytes.
The cells were treated with recombinant domains or peptides of β2GP1 at 10 μg/ml prior to incubation with aPLA or control IgG. Supernatants were collected for TNF quantification by ELISA (R&D System).

[3] = system: CD4+ T cells from APS patients; assay: T cell proliferation assay (CFSE dilution) on PBMC of APS patients; assay type: cell-based, human; parameters: dose or concentration left out as unconfirmed; settings: antigens for 10 days, flow cytometry
Procedure: Peripheral blood mononuclear cells (PBMC) were isolated by density gradient centrifugation over Lymphoprep™ (Axis-Shield PoC) according to the manufacturer's instructions. T cell proliferation was evaluated by 5,6-carboxylfluorescein diacetate succinimidyl ester (CFSE) dilution assays (eBioscience). PBMC were stained with 0.1 μM CFSE (eBioscience), according to the manufacturer's instructions. Cells were cultured in the presence of antigens ([…]) for 10 days. T cell proliferation was assessed by flow cytometry evaluation of CFSE dilution. Proliferation was expressed as the cell division index (defined as the number of CFSE^low T cells cultured with antigen/number of CFSE^low T cells without antigen). In all cases, the culture medium consisted of X-VIVO 15 (Lonza, Walkersville, MD) supplemented with penicillin (100 U/ml) and streptomycin (0.1 mg/ml).
Single-cell suspensions stained with CFSE (eBioscience) were incubated with anti-CD32 (Biolegend) to prevent nonspecific antibody binding, then stained with antibodies against AF488-CD3, AF647-CD4, (BD Bioscience) major histocompatibility complex (MHC) class II tetramer (Benaroya Research Institute). Staining was assessed with ACCURI C6 flow cytometer (BD Biosciences).

Row | aPLA binding to peptide- or domain-coated well [1] | Molecule | Inhibition of TNF production induced by aPLA [2] | also measured
1 | involved in the binding of aPLA | R62A: alanine scanning mutant of p6 (CKPGYVSRGGMAKFICPLTG; listed as Homo sapiens) |  | 
2 | involved in the binding of aPLA | R58A: alanine scanning mutant of p6 (CKPGYVSAGGMRKFICPLTG; listed as Homo sapiens) |  | 
3 |  | p11: 20-mer overlapping peptide of β2GP1 domain I-II, SEQ ID NO:45 (EYPNTISFSCNTGFYLNGAD; listed as Homo sapiens) | had no effect | 
4 | involved in the binding of aPLA | F64A: alanine scanning mutant of p6 (CKPGYVSRGGMRKAICPLTG; listed as Homo sapiens) |  | 
5 |  | p10: 20-mer overlapping peptide of β2GP1 domain I-II, SEQ ID NO:44 (ENGAVRYTTFEYPNTISFSC; listed as Homo sapiens) | had no effect | 
6 | involved in the binding of aPLA | C66A: alanine scanning mutant of p6 (CKPGYVSRGGMRKFIAPLTG; listed as Homo sapiens) |  | 
7 | involved in the binding of aPLA | G60A: alanine scanning mutant of p6 (CKPGYVSRGAMRKFICPLTG; listed as Homo sapiens) |  | 
8 | involved in the binding of aPLA | M61A: alanine scanning mutant of p6 (CKPGYVSRGGARKFICPLTG; listed as Homo sapiens) |  | 
9 | involved in the binding of aPLA | G59A: alanine scanning mutant of p6 (CKPGYVSRAGMRKFICPLTG; listed as Homo sapiens) |  | 
10 | efficiently interacted with aPLA | domain III-IV: recombinant fusion protein of β2GP1 domains III-IV (protein, left off: small tags and cut ends) PIICPPPSIPTFATLRVYKPSAGNNSLYRDTAVFECLPQHAMFGNDTITCTTHGNWTKLPECREVKCPFPSRPDNGFVNYPAKPTLYYKDKATFGCHDGYSLDGPEEIECTKLGNWSAMPSCKA | significantly decreased the production of TNF induced by aPLA | aPLA binding to peptide- or domain-coated well ([1]; listed as domain III): binding of aPLA
11 | binding of aPLA | domain I-II: recombinant fusion protein of β2GP1 sushi domain I and II, SEQ ID NO:37 (protein, listed as Homo sapiens) MISPVLILFSSFLCHVAIAGRTCPKPDDLPFSTVVPLKTFYEPGEEITYSCKPGYVSRGGMRKFICPLTGLWPINTLKCTPRVCPFAGILENGAVRYTTFEYPNTISFSCNTGFYLNGADSAKCTEEGKWSPELPVCA | significantly decreased the production of TNF induced by aPLA | CD4+ T cell proliferative response (CD4+CFSElow) [3]: induce proliferation of T cells; CD4+ T cell proliferative response (CD4+CFSElow) ([3]; listed as β2GP1-domain I-II): proliferative responses were detected
12 | binding of aPLA | reduced β2GP1: reduced β2GP1 exposing the cryptic epitope (protein) GRTCPKPDDLPFSTVVPLKTFYEPGEEITYSCKPGYVSRGGMRKFICPLTGLWPINTLKCTPRVCPFAGILENGAVRYTTFEYPNTISFSCNTGFYLNGADSAKCTEEGKWSPELPVCAPIICPPPSIPTFATLRVYKPSAGNNSLYRDTAVFECLPQHAMFGNDTITCTTHGNWTKLPECREVKCPFPSRPDNGFVNYPAKPTLYYKDKATFGCHDGYSLDGPEEIECTKLGNWSAMPSCKASCKVPVKKATVVYQGERVKIQEKFKNGMLHGDKVSFFCKNKEKKCSYTEDAQCIDGTIEVPKCFKEHSSLAFWKTDASDVKPC | no effect on aPLA activity | CD4+ T cell proliferative response (CD4+CFSElow) [3]: induce proliferation of T cells; also recorded: proliferative responses were detected
13 | binding of aPLA | β-2-Glycoprotein 1 (protein, native β2GP1 purified from Human Plasma (Prospecbio)) GRTCPKPDDLPFSTVVPLKTFYEPGEEITYSCKPGYVSRGGMRKFICPLTGLWPINTLKCTPRVCPFAGILENGAVRYTTFEYPNTISFSCNTGFYLNGADSAKCTEEGKWSPELPVCAPIICPPPSIPTFATLRVYKPSAGNNSLYRDTAVFECLPQHAMFGNDTITCTTHGNWTKLPECREVKCPFPSRPDNGFVNYPAKPTLYYKDKATFGCHDGYSLDGPEEIECTKLGNWSAMPSCKASCKVPVKKATVVYQGERVKIQEKFKNGMLHGDKVSFFCKNKEKKCSYTEDAQCIDGTIEVPKCFKEHSSLAFWKTDASDVKPC | no effect on aPLA activity | CD4+ T cell proliferative response (CD4+CFSElow) [3]: unable to significantly stimulate T cell proliferation
14 |  | domain V: recombinant fusion protein of β2GP1 domain V (protein, left off: small tags and cut ends) SCKVPVKKATVVYQGERVKIQEKFKNGMLHGDKVSFFCKNKEKKCSYTEDAQCIDGTIEVPKCFKEHSSLAFWKTDASDVKPC | significantly decreased the production of TNF induced by aPLA | 

Row | Molecule | aPLA binding to peptide- or domain-coated well [1] | Inhibition of TNF production induced by aPLA [2] | also measured
15 | S11A: alanine scanning mutant of p1 (MISPVLILFSAFLCHVAIAG; listed as Homo sapiens) | significantly decreased the binding of aPLA |  | 
16 | L8A: alanine scanning mutant of p1 (MISPVLIAFSSFLCHVAIAG; listed as Homo sapiens) | significantly decreased the binding of aPLA |  | 
17 | C14A: alanine scanning mutant of p1 (MISPVLILFSSFLAHVAIAG; listed as Homo sapiens) | significantly decreased the binding of aPLA |  | 
18 | F12A: alanine scanning mutant of p1 (MISPVLILFSSALCHVAIAG; listed as Homo sapiens) | significantly decreased the binding of aPLA |  | 
19 | MISPVLILFSSFLCHVAIAG [p1] | able to bind p1 (SEQ ID NO:32) as potently as p6; also recorded: interact with aPLA | diminished the production of TNF induced by aPLA | CD4+ T cell proliferative response (CD4+CFSElow) [3]: significantly increased; also recorded: induced the proliferation of CD4^+ T cells; CD4+ T cell proliferative response (CD4+CFSElow) ([3]; listed as peptide 1): carries antigenic determinant for CD4^+ T cell proliferation
20 | F9A: alanine scanning mutant of p1 (MISPVLILASSFLCHVAIAG; listed as Homo sapiens) | significantly decreased the binding of aPLA |  | 
21 | p6: 20-mer peptide of β2GP1 domain I-II containing epitope R39-R43, SEQ ID NO:33 (CKPGYVSRGGMRKFICPLTG; listed as Homo sapiens) | interacted similarly with both peptides; also recorded: interact with aPLA | diminished the production of TNF induced by aPLA | 
22 | p3: 20-mer overlapping peptide of β2GP1 domain I-II, SEQ ID NO:39 (RTCPKPDDLPFSTVVPLKTF; listed as Homo sapiens) | bound to p3 with a similar efficiency compared to p1 |  | 
23 | I7A: alanine scanning mutant of p1 (MISPVLALFSSFLCHVAIAG; listed as Homo sapiens) | significantly decreased the binding of aPLA |  | 

— patent US11919939B2, “Beta-2-glycoprotein 1 derived peptide and use thereof for treating antiphospholipid syndrome” (Université de Genéve, priority 2017, dated 2024)
